US9464291B2, “Methods and compositions for the treatment of cancer” (University of South Alabama, priority 2012, dated 2016)
Entries after “also recorded” stand apart in the source; their conditions may differ.

Assays:
OPN [1] = assay: OPN mRNA by qRT-PCR in metastatic melanoma cell lines; format: cell-based, human; conditions: MDA-MB-435
Experimental: This medium was replaced with fresh cyclopamine-containing medium after 12 h. […] RNA was assessed by real-time RT-PCR for OPN transcript levels.
Quantitative RT-PCR (qRT-PCR)-cDNA was generated using High Capacity Reverse Transcriptase Kit (Applied Biosystems, Foster City, Calif.). Real time PCR was performed using a Bio-Rad iQ5 Real-Time Detection system (Bio-Rad). All reactions were done as three independent replicates. All assays were done using the TaqMan Gene Expression Assays from Applied Biosystems. OPN (SPP1: Hs 00959010_m1) transcript levels were normalized to glyceraldehyde-3-phosphate dehydrogenase (Hs 99999905_m1) levels (δCT), which was used to calculate changes in OPN expression (2^−δδCT). […] GLI1 and SHH (Hs 00179843_m1) expressions were also similarly assessed with glyceraldehyde-3-phosphate dehydrogenase as an endogenous control. To analyze the knockdown effectiveness, “scrambled transfectants” of MDA-MB-435 was set as calibrator.

OPN [2] = assay: OPN regulation and GLI1 localisation in osteoblastic cells hFOB and MC3T3-E1; format: cell-based
Experimental: The role of the Hedgehog pathway in regulating the expression of OPN in the two osteoblastic cell lines, hFOB and MC3T3-E1 was assessed.
Quantitative RT-PCR (qRT-PCR)-cDNA was generated using High Capacity Reverse Transcriptase Kit (Applied Biosystems, Foster City, Calif.). Real time PCR was performed using a BioRad iQ5 Real-Time Detection system (Bio-Rad, Hercules, Calif.). All reactions were done in triplicate. OPN transcript levels were normalized to GAPDH levels (dCT) which was used to calculate changes in OPN expression (2-ddCT). […] The primers used included Spp1 (OPN) (Mm 00436767_m1); Bglap (osteocalcin) (Mm 01741771_g1); IBSP (Mm 00492555_m1); PTHrP (Mm 00433057_m1); RANKL (Mm 00441906_m1); GAPDH (Mm 99999915_g1).

RAW264.7 cells = assay: Osteoclast differentiation, TRAP assay, RAW264.7; format: cell-based, murine
Experimental: Cell lines—Human metastatic breast cancer cells, MDA-MB-231, were cultured in Dulbecco's Modified Eagle's Medium (DMEM/F12; Invitrogen, Carlsbad, Calif.), supplemented with 2 mM L-glutamine, 1 mM sodium pyruvate, 0.02 mM non-essential amino acids, 5% fetal bovine serum, FBS (Atlanta Biologicals, Norcross, Ga.), without antibiotics or antimycotics (cDME/F12). SUM1315 and SUM159 cells (DiMeo, T. A., et al. (2009) Cancer Res 69, 5364-5373) (Asterand, Detroit, Mich.) were cultured in DMEM/F12 supplemented with […] insulin, 5% FBS (Atlanta Biologicals) and either 10 ng/ml EGF or 1 ng/ml hydrocortisone, without antibiotics or antimycotics. The SUM1315 cells are derived from a metastasis in a patient with infiltrating ductal carcinoma; SUM159 cells were derived from a primary breast tumor with metaplastic ccarcinoma. RAW264.7 (ATCC, TIB 71) cells, a murine pre-osteoclastic line capable of differentiation and mineralization in culture (in presence of RANKL and MCSF), were grown in DMEM with L-glutamine (ATCC, 30-2002) supplemented with 10% FBS. A 2× differentiation medium (DM) was formulated for the RAW 264.7 cells comprising RAW264.7 growth medium supplemented with 20% FBS, RANKL (100 ng/ml) and M-CSF (40 ng/ml) (Matsubara, T., et al. J Bone Miner Res 25, 1068-1076). Conditioned media was harvested from breast cancer cells and mixed in a 1:1 ratio with double strength differentiation medium to assess the effect on osteoclast differentiation. 1×DM was used as control or wherever SHH (R & D Systems, Minneapolis, Minn.) or OPN (R & D Systems) was used alone. The medium on the RAW264.7 cells was replenished every 48 hours. In order to assess the effect of secreted Hh ligands, the neutralizing 5E1 antibody was used (Developmental Studies Hybridoma Bank, at the University of Iowa, Iowa). The amount of 5E1 antibody used for the studies was determined following titration of the antibody with respect to its effects on osteoclast differentiation. Medium was supplemented with 5E1 (2.5 μg/ml) and was changed on alternate days until the end of the experiment. The effect of OPN on osteoclast activity was assessed by transfecting an OPN shRNA-expressing construct on day 6 post-induction of differentiation. Fresh DM was added the following day and cells were allowed to grow for another 12 hours before termination of experiment. GLI1 expression was silenced in the SUM1315 cells using shRNA targeting GLI1 into pSuperior. gfp+neo (Oligoengine, Wash., USA). […]
Osteoclast differentiation and activity assays—Tartarate-resistant acid phosphatase (TRAP) assay was conducted for RAW 264.7 following the manufacturer's protocol (Sigma, St. Louis, Mo.). […] The percentage of area resorbed was calculated using the NIS-Elements BR. […]

| Compound | OPN mRNA levels (OPN [1]; MCC012A, MCC012F, cyclopamine 24 h) | OPN transcript levels (OPN [2]; hFOB / pre-osteoblasts, cyclopamine) | GLI1 subcellular localisation (OPN [2]; hFOB, cyclopamine 20 μM, 24 h) | osteoclast differentiation into TRAP-positive, multinucleate osteoclasts (RAW264.7 cells; DM + cyclopamine 20 μM) | ability of MDA-MB-435 conditioned medium to induce osteoclast differentiation (RAW264.7 cells; tumor cells treated with cyclopamine) | rescue of OPN transcript levels from cyclopamine inhibition (OPN [1]; cyclopamine 20 μM, recombinant SHH 100 nM) | OPN promoter activity (OPN [2]; hFOB and MC3T3) | numbers of TRAP stained multinucleate cells (RAW264.7 cells; DM supplemented with SHH (100 nM) or OPN (100 ng/ml) vs DM alone) |
| --- | --- | --- | --- | --- | --- | --- | --- | --- |
| CC1=C2C[C@H]3[C@@H](CC=C4C[C@@H](O)CC[C@@]43C)[C@@H]2CC[C@]12O[C@@H]1C[C@H](C)CN[C@H]1[C@H]2C [cyclopamine] | decreases the levels of OPN mRNA | decreases OPN mRNA levels; also recorded: inhibited the transcription of OPN; also recorded: reduction in the levels of OPN transcript levels | keeps GLI1 sequestered in the cytosolic compartment | significantly (p<0.0001) reduced the ability of DM to elicit differentiation | significant reduction in this ability |  |  |  |
| SHH: recombinant Sonic hedgehog ligand (R & D Systems) |  |  |  |  |  | reverse and rescue the inhibitory effects of cyclopamine | stimulated the promoter of OPN; also recorded: upregulation in OPN promoter activity | significant (p<0.005) increase |
